In one test the target is CatSper (Homo sapiens, UniProt Q7RTX7+Q86XQ3+Q8NEC5+Q96P56). Briefly: whole-cell patch clamp of human spermatozoa. Format: cell-based. (In general: The patch-clamp technique gives a direct electrical read-out from membranes.)
The target in test [1] is T1, α/β hydrolase domain–containing protein 2 (ABHD2) (Homo sapiens, UniProt P08910).
T1 sequence (P08910 1-425): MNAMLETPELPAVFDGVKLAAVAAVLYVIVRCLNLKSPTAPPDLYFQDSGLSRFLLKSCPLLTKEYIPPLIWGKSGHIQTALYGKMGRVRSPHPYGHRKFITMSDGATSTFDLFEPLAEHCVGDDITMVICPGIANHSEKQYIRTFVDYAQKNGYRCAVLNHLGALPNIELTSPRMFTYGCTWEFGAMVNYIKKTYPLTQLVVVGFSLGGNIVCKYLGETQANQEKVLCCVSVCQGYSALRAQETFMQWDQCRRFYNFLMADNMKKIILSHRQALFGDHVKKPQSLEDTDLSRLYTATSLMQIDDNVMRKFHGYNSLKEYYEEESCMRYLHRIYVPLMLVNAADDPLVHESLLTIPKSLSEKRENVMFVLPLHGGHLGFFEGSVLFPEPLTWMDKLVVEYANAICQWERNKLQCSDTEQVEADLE
The test can be described thus: monoacylglycerol hydrolysis by recombinant ABHD2. Type of test: cell-based.

SMILES strings stand for the structures.

Chain of CatSper (Q8NEC5 whole entry, the tested form may be a part): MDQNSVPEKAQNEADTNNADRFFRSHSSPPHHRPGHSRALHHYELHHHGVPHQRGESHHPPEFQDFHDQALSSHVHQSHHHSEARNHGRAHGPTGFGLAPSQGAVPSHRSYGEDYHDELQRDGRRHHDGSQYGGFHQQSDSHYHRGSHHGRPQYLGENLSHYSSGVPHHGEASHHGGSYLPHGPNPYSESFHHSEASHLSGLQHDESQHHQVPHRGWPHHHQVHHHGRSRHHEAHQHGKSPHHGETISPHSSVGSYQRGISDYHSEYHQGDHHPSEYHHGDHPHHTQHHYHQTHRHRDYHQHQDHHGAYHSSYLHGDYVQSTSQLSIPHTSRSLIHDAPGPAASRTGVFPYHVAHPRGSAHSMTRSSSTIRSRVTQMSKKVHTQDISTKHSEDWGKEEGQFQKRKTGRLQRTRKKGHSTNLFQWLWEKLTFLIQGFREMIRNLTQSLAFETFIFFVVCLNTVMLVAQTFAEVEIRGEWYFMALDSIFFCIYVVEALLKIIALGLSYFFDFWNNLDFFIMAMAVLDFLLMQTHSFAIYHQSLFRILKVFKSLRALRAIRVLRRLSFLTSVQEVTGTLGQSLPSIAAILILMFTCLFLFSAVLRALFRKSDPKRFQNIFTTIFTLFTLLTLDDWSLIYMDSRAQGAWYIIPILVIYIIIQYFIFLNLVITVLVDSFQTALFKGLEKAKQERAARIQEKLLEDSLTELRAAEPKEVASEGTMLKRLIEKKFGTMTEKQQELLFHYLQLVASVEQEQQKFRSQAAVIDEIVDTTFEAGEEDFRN
Chain of CatSper (Q96P56 whole entry, the tested form may be a part): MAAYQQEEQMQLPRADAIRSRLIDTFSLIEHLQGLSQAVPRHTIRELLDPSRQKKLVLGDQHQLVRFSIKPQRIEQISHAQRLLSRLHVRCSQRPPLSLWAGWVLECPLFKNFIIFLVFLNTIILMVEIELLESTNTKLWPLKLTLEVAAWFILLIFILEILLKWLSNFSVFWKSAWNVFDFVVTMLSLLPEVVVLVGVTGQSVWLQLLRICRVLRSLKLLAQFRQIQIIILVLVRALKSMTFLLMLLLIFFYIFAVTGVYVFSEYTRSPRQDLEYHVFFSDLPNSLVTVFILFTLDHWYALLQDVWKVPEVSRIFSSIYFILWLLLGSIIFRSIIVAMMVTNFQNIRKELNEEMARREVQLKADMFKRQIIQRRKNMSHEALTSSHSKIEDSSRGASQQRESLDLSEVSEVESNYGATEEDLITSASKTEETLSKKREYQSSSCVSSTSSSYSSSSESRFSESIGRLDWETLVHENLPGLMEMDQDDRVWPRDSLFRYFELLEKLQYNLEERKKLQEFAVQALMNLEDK
Chain of CatSper (Q86XQ3 whole entry, the tested form may be a part): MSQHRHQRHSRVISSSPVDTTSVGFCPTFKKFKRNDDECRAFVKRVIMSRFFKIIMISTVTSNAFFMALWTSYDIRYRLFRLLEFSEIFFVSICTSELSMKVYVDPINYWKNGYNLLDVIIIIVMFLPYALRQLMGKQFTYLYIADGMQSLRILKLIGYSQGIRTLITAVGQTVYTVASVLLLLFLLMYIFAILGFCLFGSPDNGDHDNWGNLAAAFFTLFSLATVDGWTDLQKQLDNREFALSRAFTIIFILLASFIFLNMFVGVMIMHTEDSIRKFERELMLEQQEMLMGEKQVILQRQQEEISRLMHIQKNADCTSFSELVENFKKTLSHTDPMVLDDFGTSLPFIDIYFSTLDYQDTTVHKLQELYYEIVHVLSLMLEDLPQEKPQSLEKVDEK
Chain of CatSper (Q7RTX7 whole entry, the tested form may be a part): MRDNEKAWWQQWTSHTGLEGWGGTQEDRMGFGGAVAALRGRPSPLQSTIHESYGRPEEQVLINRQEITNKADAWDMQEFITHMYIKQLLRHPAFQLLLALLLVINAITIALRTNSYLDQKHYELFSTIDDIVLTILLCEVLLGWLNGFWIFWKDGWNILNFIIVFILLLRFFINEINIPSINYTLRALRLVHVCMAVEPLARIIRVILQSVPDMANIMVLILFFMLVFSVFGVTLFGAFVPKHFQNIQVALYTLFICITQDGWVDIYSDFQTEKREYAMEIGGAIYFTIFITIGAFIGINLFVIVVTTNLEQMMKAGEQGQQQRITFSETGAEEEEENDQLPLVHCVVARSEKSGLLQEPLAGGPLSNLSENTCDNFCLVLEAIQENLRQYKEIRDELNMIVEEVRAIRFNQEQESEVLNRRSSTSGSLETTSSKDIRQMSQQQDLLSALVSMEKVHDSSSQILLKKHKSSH

With `CCCCC/C=C\C/C=C\C/C=C\C/C=C\CCCC(=O)OCC(O)CO` (centres unmarked) [1AG, 1-arachidonoylglycerol], on CatSper, the “whole-cell patch clamp of human spermatozoa” value was “whereas 1AG and 2AG (AGs) inhibited ICatSper”.

With `CCCCC/C=C\C/C=C\C/C=C\C/C=C\CCCC(=O)OC(CO)CO` [2AG, 2-arachidonoylglycerol], the “monoacylglycerol hydrolysis by recombinant ABHD2 (free glycerol production) with” value in test [1] was “ABHD2, which metabolizes endocannabinoids 1AG and 2AG only in the presence of progesterone”.

The record behind these values is publication PMC5373689 (Science (New York, N.Y.), 2016).
